{"source": "patent US12344852B2", "about": "“Control of phenotype in plants” (GREENVENUS, LLC, priority 2016, dated 2025)", "key": {"[1]": {"test_system": "GUS reporter gene", "test": "Ligand inducible GUS silencing (Agro-infiltration, X-gluc staining) in DCL1/DCL2/GUS hairpin petunia lines", "assay_type": "cell-based", "protocol": "Assay for Agro-infiltration. Transient β-glucoronidase (GUS) expression, was modified from previously reported literature (Wroblewski et al. (2005) Plant Biotechnol. J. 3(2):259-273). Specifically, Agrobacterium tumefaciens strain EHA105 containing an appropriate plasmid for GUS expression was grown overnight to an OD600 of 0.8 and re-suspended in induction buffer with the following components: MS basal medium (Sigma-Aldrich), 10 mM MgCl2, and 100 uM acetosyringone. After 4 hours, induced culture suspension was infiltrated into detached fully expanded petunia leaves (approximately 0.1 mL/leaf). Leaves were incubated in a humidity chamber at 28° C. for 3 days.\nHistochemical X-gluc staining for GUS visualization. […]\nLigand inducible hairpin expression for dsRNA synthesis targeting two Botrytis cinerea genes and the GUS reporter gene. Ligand inducible expression of the DCL1/DCL2/GUS hairpin cassette was evaluated using the transient Agrobacterium-mediated GUS expression as described above only detached leaves were sprayed with 50 uM ligand or mock treated with water prior to Agro-infiltration. […]\nEight independent Switch-DCL1/DCL2/GUS petunia lines were evaluated by detaching 6 leaves from each line and splitting into two treatments. […]"}, "[2]": {"test_system": "Barnase/IP:Barstar (ID06) transgenic Arabidopsis plants", "test": "Restoration of flowering in Barnase/IP:Barstar (ID06) transgenic plants by ligand spray", "assay_type": "in vivo", "conditions": "for B/FS:B plants that developed flowers: T2 ID06 plants, end of experiment day 51", "excerpt": "A vector ID06, illustrated diagrammatically in FIG. 11, was constructed to provide constant expression of the barnase ribonuclease from Bacillus amyloliquefaciens in flower primordia to suppress flowering. The DNA construct (ID06) was transformed into wild type Arabidopsis by flower dipping method. T1 seeds were harvested and germinated in soil. Seven day old T1 seedlings were sprayed with LIBERTY® 280SL herbicide and 37 transgenic plants resistant to the herbicide survived. Transformants were analyzed by quantitative PCR (qPCR) to check transgene copy numbers. Thirteen percent of transgenic events contained only one copy of the transgene. All events were grown in growth chambers to evaluate phenotypes. The transgenic plants containing ID06 DNA construct should express the cytotoxic ribonuclease barnase in flower primordia which prevents formation of flowers. […] Instead of flowers, the Barnase/IP:Barstar plants have elongated small leaves that could have derived from sepals as shown in the inset picture of FIG. 12B.\nThe seven week old non-flowering plants were then sprayed with the ligand methoxyfenozide (2.5 μM) to turn on barstar expression and restore flowering. Ligand applications were performed every other day until all flowers had developed. […] T2 seeds were harvested for further evaluation of the transgenic lines on T2 plants.\nMultiple T2 plants from six independent single copy transgenic ID06 events along with wt arabidopsis control plants were grown for three weeks. At three weeks plants from each line were divided in 3 treatment groups of 12 plants in each. The treatment was applied every other day for 30 days. The plants in group A were sprayed with plain water, in group B—with 50 nM solution of methoxyfenozide, and in group C—with 250 nM solution of methoxyfenozide. Before start of the treatment leaf tissue was collected from each plant for DNA extraction and genotype assessment by qPCR to identify homozygous, heterozygous and null segregant plants.\nPlants were assessed as to whether they ever flowered (yes/no at the end of experiment, day 51) and the time to start flowering defined as the number of days after the first application of methoxyfenozide (days post-treatment: DPT) until the first flower bud appears. […] All the null segregants and wild-type plants flowered irrespectively of whether or not they were sprayed with methozyfenozide."}, "[3]": {"test_system": "EcR-based gene switch (IP:GFP, ID38) in transgenic Arabidopsis leaf samples", "test": "Ligand-induced GFP expression in leaf samples of IP:GFP (ID38) transgenic plants", "assay_type": "cell-based", "conditions": "leaf samples of IP:GFP plants on media containing ligand, 24 hr; not induced in wt control", "excerpt": "Transform wild type Arabidopsis to introduce inducible GFP reporter: DNA construct ID38, which is shown diagrammatically in FIG. 1A, may be used to transform wild type (wt) Arabidopsis. […]\nGFP gene will not be expressed until methoxyfenozide (activator ligand—AL) is provided to mobilize the activator proteins for binding to the GAL4-RE and switching on the IP. […] Since GFP expression can be conveniently monitored in live plants under a fluorescence microscope, the transgenic Arabidopsis can be used to study the dosage, timing, and half life time of the ligand application. […]\nBriefly, the DNA constructs shown in FIG. 1 were built following standard molecular cloning procedures and transformed into disarmed Agrobacterium tumefaciens strain AGL1. […] Selected transgenic plants were analyzed by quantitative PCR (qPCR) and PCR to check transgene copy numbers and transgene intactness. […]"}}, "data": [{"smiles": "COc1cccc(C(=O)NN(C(=O)c2cc(C)cc(C)c2)C(C)(C)C)c1C", "note": "[methoxyfenozide, 3-methoxy-2-methylbenzoic acid 2-(3,5-dimethylbenzoyl)-2-(1,1-dimethylethyl)hydrazide]", "values": [{"measurement": "GUS expression in constitutive controls DCL-25 and DCL-6", "setting": "[1]; 50 uM ligand vs water", "result": "did not show any ligand induced changes to GUS expression"}, {"measurement": "GUS expression in Switch DCL-8 line", "setting": "[1]; 50 uM sprayed on detached leaves twice, Agro-infiltration at 3 days, X-gluc staining 3 days later, listed as ligand", "result": "ligand induced GUS silencing"}, {"measurement": "flowering of Barnase/Barstar plants", "setting": "[2]; 2.5 μM ligand, FIG. 12 Panel C", "result": "flowering"}, {"measurement": "B/FS:B plants that developed flowers", "setting": "[2]; 50 nM sprayed every other day for 30 days", "result": "56 of 57"}, {"measurement": "B/FS:B plants that developed flowers", "setting": "[2]; 250 nM sprayed every other day for 30 days", "result": "50 of 52"}, {"measurement": "delay in the time to start flowering between ligand-treated transgenic (ID06) and non-transgenic plants", "setting": "[2]; T2 plants, 50 nM or 250 nM", "result": "8 to 10", "unit": "days"}, {"measurement": "minimal effective concentration on flowering", "setting": "[2]; same effect at 50 nM and 250 nM solution", "result": "lower than 50 nM"}, {"measurement": "time after ligand application until flower buds and flowers appear", "setting": "[2]; seven week old non-flowering T1 plants, 2.5 μM sprayed every other day", "result": "seven"}, {"measurement": "concentration at which GFP expression was induced", "setting": "[3]", "result": "≤ 16", "unit": "nM"}]}]}
